In patent US20200024278A1, “COMPOSITION COMPRISING ANTIBIOTIC COMPOUND AND AN HETEROCYCLIC COMPOUND AND THEIR USE IN PREVENTING OR TREATING BACTERIAL INFECTIONS” (MUTABILIS, priority 2016, published 2020):
Where two headings read alike, the source gives them in different places.

Tests used:
Assay in all cases: MIC, broth microdilution (CLSI), substance alone or ATB combined with compound at 4 or 8 μg/mL
ECO 190317 = assay type: cell-based, E. coli; settings: for MIC: Escherichia coli
Procedure, shortened: (§1)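 Per CLSI-M7-A7, MICs are determined in cation-adjusted Mueller-Hinton broth with a final inoculum of 5·10^5 CFU/mL. Plates incubate 16-20 h at 35° C in air and are read by eye. Fosfomycin assays carry 25 μg/ml glucose-6-phosphate.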

ECO UFR39 = assay type: cell-based, E. coli; settings: for MIC: Escherichia coli
Procedure, shortened: as §1

KPN 6299 = assay type: cell-based, K. pneumoniae; settings: for MIC: Klebsiella pneumoniae
Procedure, shortened: as §1

KPN BAA-1898 = assay type: cell-based, K. pneumoniae; settings: for MIC: Klebsiella pneumoniae, BAA1898
Procedure, shortened: as §1

KPN UFR42 = assay type: cell-based, K. pneumoniae; settings: for MIC: Klebsiella pneumoniae
Procedure, shortened: as §1

ECL P99 = assay type: cell-based, E. cloacae; settings: ECL P99
Procedure, shortened: as §1

C=CC1=C(C(=O)O)N2C(=O)[C@@H](NC(=O)/C(=N\OCC(=O)O)c3csc(N)n3)[C@H]2SC1 [FIX, Cefixime, reference compound]
MIC ATB combined with Example 1 @8 μg/ml (ECO 190317; ECO 190317, with Example 1 @8 μg/ml): <0.031 µg/mL
MIC ATB combined with Example 1 @8 μg/ml (ECO 190317; ECO 190317, with Example 1 at 8 μg/ml): <0.031 µg/mL
MIC ATB combined with Example 7 @8 μgml (ECO 190317; ECO 190317, with Example 7 at 8 μg/ml): <0.031 µg/mL
MIC ATB combined with Example 9 @4 μg/ml (ECO 190317; ECO 190317, with Example 9 @4 μg/ml): <0.031 µg/mL
MIC ATB combined with Example 9 @4 μg/ml (ECO 190317; ECO 190317, with Example 9 at 4 μg/ml): <0.031 µg/mL
MIC ATB combined with Example 11 @8 μg/ml (ECO 190317; ECO 190317, with Example 11 at 8 μg/ml): <0.031 µg/mL
MIC ATB combined with Example 12 @8 μg/ml (ECO 190317; ECO 190317, with Example 12 at 8 μg/ml): <0.031 µg/mL
MIC ATB combined with Example 13 @8 μg/ml (ECO 190317; ECO 190317, with Example 13 at 8 μg/ml): <0.031 µg/mL
MIC ATB combined with Example 14 @8 μg/ml (ECO 190317; ECO 190317, with Example 14 at 8 μg/ml): <0.031 µg/mL
MIC ATB combined with Example 15 @4 μgml (ECO 190317; ECO 190317, with Example 15 at 4 μg/ml): <0.031 µg/mL
MIC ATB combined with Example 16 @4 μg/ml (ECO 190317; ECO 190317, with Example 16 at 4 μg/ml): <0.031 µg/mL
MIC (ECO 190317): > 128 µg/mL
MIC (ECO 190317; ECO 190317, antibiotic alone, read-out: MIC ATB alone): 256 µg/mL
MIC ATB combined with Example 1 @8 μg/ml (ECO UFR39; ECO UFR39, with Example 1 @8 μg/ml): >32 µg/mL
MIC ATB combined with Example 1 @8 μg/ml (ECO UFR39; ECO UFR39, with Example 1 at 8 μg/ml): >32 µg/mL
MIC ATB combined with Example 7 @8 μgml (ECO UFR39; ECO UFR39, with Example 7 at 8 μg/ml): <0.031 µg/mL
MIC ATB combined with Example 9 @4 μg/ml (ECO UFR39; ECO UFR39, with Example 9 @4 μg/ml): <0.031 µg/mL
MIC ATB combined with Example 9 @4 μg/ml (ECO UFR39; ECO UFR39, with Example 9 at 4 μg/ml): <0.031 µg/mL
MIC ATB combined with Example 11 @8 μg/ml (ECO UFR39; ECO UFR39, with Example 11 at 8 μg/ml): <0.031 µg/mL
MIC ATB combined with Example 12 @8 μg/ml (ECO UFR39; ECO UFR39, with Example 12 at 8 μg/ml): <0.031 µg/mL
MIC ATB combined with Example 13 @8 μg/ml (ECO UFR39; ECO UFR39, with Example 13 at 8 μg/ml): <0.031 µg/mL
MIC ATB combined with Example 14 @8 μg/ml (ECO UFR39; ECO UFR39, with Example 14 at 8 μg/ml): <0.031 µg/mL
MIC ATB combined with Example 15 @4 μgml (ECO UFR39; ECO UFR39, with Example 15 at 4 μg/ml): <0.031 µg/mL
MIC ATB combined with Example 16 @4 μg/ml (ECO UFR39; ECO UFR39, with Example 16 at 4 μg/ml): <0.031 µg/mL
MIC (ECO UFR39): > 128 µg/mL
MIC (ECO UFR39; ECO UFR39, antibiotic alone, read-out: MIC ATB alone): > 512 µg/mL
MIC (KPN 6299; antibiotic alone, read-out: MIC ATB alone): 16 µg/mL
MIC (KPN 6299; substance alone, read-out: MIC): 16 µg/mL
MIC ATB combined with Example 1 @8 μg/ml (KPN 6299; with Example 1 @8 μg/ml): 0.063 µg/mL
MIC ATB combined with Example 1 @8 μg/ml (KPN 6299; with Example 1 at 8 μg/ml): 0.063 µg/mL
MIC ATB combined with Example 7 @8 μgml (KPN 6299; with Example 7 at 8 μg/ml): 0.063 µg/mL
MIC ATB combined with Example 9 @4 μg/ml (KPN 6299; with Example 9 @4 μg/ml): <=0.031 μg/mL
MIC ATB combined with Example 9 @4 μg/ml (KPN 6299; with Example 9 at 4 μg/ml): <=0.031 μg/mL
MIC ATB combined with Example 11 @8 μg/ml (KPN 6299; with Example 11 at 8 μg/ml): <0.031 µg/mL
MIC ATB combined with Example 12 @8 μg/ml (KPN 6299; with Example 12 at 8 μg/ml): <0.031 µg/mL
MIC ATB combined with Example 13 @8 μg/ml (KPN 6299; with Example 13 at 8 μg/ml): <=0.031 μg/mL
MIC ATB combined with Example 14 @8 μg/ml (KPN 6299; with Example 14 at 8 μg/ml): <0.031 µg/mL
MIC ATB combined with Example 15 @4 μgml (KPN 6299; with Example 15 at 4 μg/ml): <0.031 µg/mL
MIC ATB combined with Example 16 @4 μg/ml (KPN 6299; with Example 16 at 4 μg/ml): <0.031 µg/mL
MIC ATB combined with Example 1 @8 μg/ml (KPN BAA-1898; KPN BAA-1898, with Example 1 @8 μg/ml): 0.25 µg/mL
MIC ATB combined with Example 1 @8 μg/ml (KPN BAA-1898; KPN BAA-1898, with Example 1 at 8 μg/ml): 0.25 µg/mL
MIC ATB combined with Example 7 @8 μgml (KPN BAA-1898; KPN BAA-1898, with Example 7 at 8 μg/ml): 0.25 µg/mL
MIC ATB combined with Example 9 @4 μg/ml (KPN BAA-1898; KPN BAA-1898, with Example 9 @4 μg/ml): <0.031 µg/mL
MIC ATB combined with Example 9 @4 μg/ml (KPN BAA-1898; KPN BAA-1898, with Example 9 at 4 μg/ml): <0.031 µg/mL
MIC ATB combined with Example 11 @8 μg/ml (KPN BAA-1898; KPN BAA-1898, with Example 11 at 8 μg/ml): <0.031 µg/mL
MIC ATB combined with Example 12 @8 μg/ml (KPN BAA-1898; KPN BAA-1898, with Example 12 at 8 μg/ml): <0.031 µg/mL
MIC ATB combined with Example 13 @8 μg/ml (KPN BAA-1898; KPN BAA-1898, with Example 13 at 8 μg/ml): 0.5 µg/mL
MIC ATB combined with Example 14 @8 μg/ml (KPN BAA-1898; KPN BAA-1898, with Example 14 at 8 μg/ml): <0.031 µg/mL
MIC ATB combined with Example 15 @4 μgml (KPN BAA-1898; KPN BAA-1898, with Example 15 at 4 μg/ml): <0.031 µg/mL
MIC ATB combined with Example 16 @4 μg/ml (KPN BAA-1898; KPN BAA-1898, with Example 16 at 4 μg/ml): <0.031 µg/mL
MIC (KPN BAA-1898): > 128 µg/mL
MIC (KPN BAA-1898; KPN BAA-1898, antibiotic alone, read-out: MIC ATB alone): > 512 µg/mL
MIC ATB combined with Example 1 @8 μg/ml (KPN UFR42; KPN UFR42, with Example 1 @8 μg/ml): >32 µg/mL
MIC ATB combined with Example 1 @8 μg/ml (KPN UFR42; KPN UFR42, with Example 1 at 8 μg/ml): >32 µg/mL
MIC ATB combined with Example 7 @8 μgml (KPN UFR42; KPN UFR42, with Example 7 at 8 μg/ml): >32 µg/mL
MIC ATB combined with Example 9 @4 μg/ml (KPN UFR42; KPN UFR42, with Example 9 @4 μg/ml): >32 µg/mL
MIC ATB combined with Example 9 @4 μg/ml (KPN UFR42; KPN UFR42, with Example 9 at 4 μg/ml): >32 µg/mL
MIC ATB combined with Example 11 @8 μg/ml (KPN UFR42; KPN UFR42, with Example 11 at 8 μg/ml): <0.031 µg/mL
MIC ATB combined with Example 12 @8 μg/ml (KPN UFR42; KPN UFR42, with Example 12 at 8 μg/ml): <0.031 µg/mL
MIC ATB combined with Example 13 @8 μg/ml (KPN UFR42; KPN UFR42, with Example 13 at 8 μg/ml): >32 µg/mL
MIC ATB combined with Example 14 @8 μg/ml (KPN UFR42; KPN UFR42, with Example 14 at 8 μg/ml): <0.031 µg/mL
MIC ATB combined with Example 15 @4 μgml (KPN UFR42; KPN UFR42, with Example 15 at 4 μg/ml): <0.031 µg/mL
MIC ATB combined with Example 16 @4 μg/ml (KPN UFR42; KPN UFR42, with Example 16 at 4 μg/ml): <0.031 µg/mL
MIC (KPN UFR42): > 128 µg/mL
MIC (KPN UFR42; KPN UFR42, antibiotic alone, read-out: MIC ATB alone): > 256 µg/mL
MIC ATB combined with Example 1 @8 μg/ml (ECL P99; with Example 1 @8 μg/ml): 0.063 µg/mL
MIC ATB combined with Example 1 @8 μg/ml (ECL P99; with Example 1 at 8 μg/ml): 0.063 µg/mL
MIC ATB combined with Example 7 @8 μgml (ECL P99; with Example 7 at 8 μg/ml): 16 µg/mL
MIC ATB combined with Example 9 @4 μg/ml (ECL P99; with Example 9 @4 μg/ml): <0.031 µg/mL
